Measurements published in patent US12180187B2, “1-phenyl-5-azinylpyrazolyl-3-oxyalkyl acids and their use for controlling unwanted plant growth” (BAYER AKTIENGESELLSCHAFT, priority 2019, dated 2024).

Legend:
[1] = system: ECHCG; test: Post-emergence action against ECHCG, 1.28 kg/ha; type: in vivo, Echinochloa crus-galli; conditions: dosage 1280 g/ha, visual rating about 3 weeks after treatment vs untreated controls
Procedure, shortened: (§1)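 Spray at one-leaf stage with WP/EC + 0.5% additive, 600 L water/ha. Greenhouse, optimum conditions, ~3 wk. Visual % control vs untreated; 0 = no effect, 100 = dead.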

[2] = system: LOLRI; test: Post-emergence action against LOLRI, 1.28 kg/ha; type: in vivo, Lolium rigidum; conditions: dosage 1280 g/ha, visual rating about 3 weeks after treatment vs untreated controls
Procedure, shortened: as §1

[3] = system: VIOTR; test: Pre-emergence action at 320 g/ha against VIOTR; type: in vivo, Viola tricolor; conditions: dosage 320 g/ha
Procedure, shortened: (§2)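 Weed seeds sown in pots and covered with soil; compounds formulated as WP or EC were sprayed onto the soil surface as aqueous suspension or emulsion with 0.5% additive at 600 l/ha water. Pots kept in greenhouse; activity scored visually after about 3 weeks versus untreated controls (100% = plants dead, 0% = like control).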

[4] = system: ALOMY; test: Pre-emergence action against ALOMY, 1280 g/ha; type: in vivo, Alopecurus myosuroides; conditions: visual scoring after about 3 weeks vs untreated controls, 100% = plants have died, 0% = like control plants
Procedure, shortened: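 Each pot was doubly sown in sandy loam and covered, then its soil surface was treated with compound suspension or emulsion containing 0.5% additive at 600 L/ha water. Plants grew in a greenhouse; effect was rated visually as percentages versus controls after about 3 weeks.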

[5] = system: ECHCG; test: Post-emergence action at 320 g/ha against ECHCG; type: in vivo, Echinochloa crus-galli; conditions: dosage 320 g/ha, visual rating about 3 weeks after treatment vs untreated controls (100% = plants died)
Procedure, shortened: (§3)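 Greenhouse-grown plants sprayed post-emergence at the one-leaf stage, 2 to 3 weeks after sowing, with WP or EC formulations plus 0.5% additive at 600 l/ha water, at 320 g/ha. Activity rated visually after about 3 weeks versus untreated controls (100% = plants died, 0% = like control).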

[6] = system: AVEFA; test: Post-emergence action at 320 g/ha against AVEFA; type: in vivo; conditions: visual rating about 3 weeks after treatment vs untreated controls
Procedure, shortened: as §3

[7] = system: VIOTR; test: Post-emergence action at 320 g/ha against VIOTR; type: in vivo, Viola tricolor; conditions: visual rating about 3 weeks after treatment vs untreated controls
Procedure, shortened: as §3

[8] = system: ABUTH; test: Post-emergence action against ABUTH, 1.28 kg/ha; type: in vivo, Abutilon theophrasti; conditions: dosage 1280 g/ha, visual rating about 3 weeks after treatment vs untreated controls (100% = plants died)
Procedure, shortened: as §1

[9] = system: SETVI; test: Post-emergence action at 320 g/ha against SETVI; type: in vivo, Setaria viridis; conditions: visual rating about 3 weeks after treatment vs untreated controls
Procedure, shortened: as §3

[10] = system: AMARE; test: Post-emergence action against AMARE, 1.28 kg/ha; type: in vivo, Amaranthus retroflexus; conditions: dosage 1280 g/ha, visual rating about 3 weeks after treatment vs untreated controls (100% = plants died)
Procedure, shortened: as §1

[11] = system: ECHGC; test: Pre-emergence action at 320 g/ha against ECHGC; type: in vivo, Echinochloa crus-galli; conditions: visual scoring after about 3 weeks vs untreated controls
Procedure, shortened: as §2

[12] = system: DIGSA; test: Post-emergence action at 320 g/ha against DIGSA; type: in vivo, Digitaria sanguinalis; conditions: dosage 320 g/ha, visual rating about 3 weeks after treatment vs untreated controls (100% = plants died)
Procedure, shortened: as §3

[13] = system: KCHSC; test: Post-emergence action against KCHSC, 1.28 kg/ha; type: in vivo, Bassia scoparia; conditions: dosage 1280 g/ha, visual rating about 3 weeks after treatment vs untreated controls (100% = plants died)
Procedure, shortened: as §1

Row | Structure (SMILES) | Post-emergence action against ECHCG [1] [%] | Post-emergence action against LOLRI [2] [%] | Pre-emergence action against VIOTR in % [3] [%] | Pre-emergence action against ALOMY [4] [%] | Post-emergence action at 320 g/ha against ECHCG in % [5] [%] | Post-emergence action against AVEFA in % [6] [%] | Post-emergence action against VIOTR in % [7] [%] | Post-emergence action against ABUTH [8] [%] | Post-emergence action against SETVI in % [9] [%] | Post-emergence action against AMARE [10] [%] | Pre-emergence action against ECHGC in % [11] [%] | Post-emergence action at 320 g/ha against DIGSA in % [12] [%] | Post-emergence action against KCHSC [13] [%]
1 | COC(=O)CNC(=O)COc1nn(-c2ccccc2F)c(-c2ccc(F)nc2)c1C(F)(F)F [Example X-007] | 100 | 100 | 100 | 100 | 80 | 80 | 80 | 90 | 80 | 90 | – | – | –
2 | COC(=O)C(C)Oc1nn(-c2ccccc2)c(-c2ccc(F)nc2)c1Br (stereo not shown) [VII-014] | 90 | 90 | 100 | 90 | 80 | 90 | 90 | – | 100 | 90 | 80 | 80 | –
3 | CCOC(=O)COc1nn(-c2ccccc2F)c(-c2ccc(F)nc2)c1I [VII-036] | 90 | 100 | 100 | 100 | 80 | 80 | 80 | 90 | 90 | 100 | 90 | 90 | –
4 | COCCOC(=O)COc1nn(-c2ccccc2F)c(-c2ccc(F)nc2)c1Br [VII-052] | 100 | – | 100 | 100 | – | 90 | 80 | 90 | – | 90 | 90 | 90 | –
5 | CCOC(=O)C(C)Oc1nn(-c2ccccc2F)c(-c2ccc(F)nc2)c1I (stereo not shown) [VII-057] | 100 | – | 100 | 100 | – | – | 80 | – | 80 | 100 | – | 90 | 90
6 | COC(=O)[C@@H](C)Oc1nn(-c2cc(F)ccc2F)c(-c2ccc(F)nc2)c1Br [VII-062] | 100 | 100 | 100 | 100 | 80 | 90 | 80 | – | – | – | – | 90 | 90
7 | CCOC(=O)C(C)Oc1nn(-c2ccccc2F)c(-c2ccc(F)nc2)c1C(F)(F)F (stereo not shown) [VII-066] | 100 | 100 | 100 | 100 | 80 | – | 80 | 90 | – | 90 | 90 | 90 | 90
8 | O=C(COc1nn(-c2ccccc2F)c(-c2ccc(F)nc2)c1Br)OCC1CCOC1 (stereo not shown) [VII-091] | 100 | 100 | 100 | 100 | – | 80 | – | 90 | 80 | 90 | – | 90 | –
9 | O=C(COc1nn(-c2ccccc2F)c(-c2ccc(F)nc2)c1Br)OCC1OCCO1 [VII-103] | 100 | 100 | 100 | 100 | 80 | 80 | – | – | 80 | 90 | 80 | 90 | –
10 | COC(=O)[C@H](C)Oc1nn(-c2cc(F)ccc2F)c(-c2ccc(F)nc2)c1Br [VII-107] | 100 | – | 100 | 90 | 80 | – | 80 | 90 | 80 | 100 | – | 90 | –
11 | CCOC(=O)COc1nn(-c2ccccc2F)c(-c2ccc(F)nc2)c1C [VII-117] | 100 | 100 | 100 | 100 | – | 90 | 80 | – | 80 | 100 | 90 | 90 | –
12 | COC(=O)[C@@H](C)Oc1nn(-c2cc(F)ccc2F)c(-c2cncc(F)c2)c1Br [VII-132] | 100 | – | 100 | 100 | 80 | 80 | 80 | 90 | – | 100 | 90 | 90 | 100
13 | COC(=O)[C@@H](C)Oc1nn(-c2cc(F)ccc2F)c(-c2cncc(F)c2)c1C#N [VII-147] | 100 | 100 | 100 | 100 | 80 | 80 | – | 90 | 80 | 100 | 100 | – | 90
